Data as given in patent US6375979B2 (Somerset Pharmaceuticals, Inc., priority 1995, dated 2002).
Values joined by “and” are separate entries in the source; they are usually repeats but may differ in a detail not shown here. Equal entries are not always repeated. Where two headings read alike, the source gives them in different places.

Key:
wobbler mouse = assay: Wobbler mouse model of motor neuron disease; assay type: in vivo; conditions: 0.1 mg/kg daily intra-peritoneal for 30 days; range in parentheses
Procedure: The ability of the enantiomers of DMS to prevent neurological deterioration was examined by administering the agents to the wobbler mouse, an animal model of motor neuron diseases, particularly amyotrophic lateral sclerosis (ALS).
A 0.1 mg/kg dose of R(−)DMS, S(+)DMS or placebo was administered to wobbler mice by daily intra-peritoneal injection for a period of 30 days in a randomized, double-blind study. At the end of this time mice were examined for grip strength, running time, resting locomotive activity and graded for semi-quantitative paw posture abnormalities, and semi-quantitative walking abnormalities. The investigators who prepared and administered the test drugs to the animals were different than those who analyzed behavioral changes.
Assays and grading were performed essentially as described in Mitsumoto et al., Ann. Neurol. 36:142-148 (1994). Grip strength of the front paws of a mouse was determined by allowing the animal to grasp a wire with both paws. […] The reading on the dynamometer at the point of release is taken as a measure of grip strength.
Running time is defined as the shortest time necessary to traverse a specified distance, e.g. 2.5 feet and the best time of several trials is recorded. […]
Locomotive activity is determined by transferring animals to an examination area in which the floor is covered with a square grid. […]

[1] = target: T1, dopamine re-uptake system (Rattus norvegicus, UniProt P23977); assay: Inhibition of dopamine re-uptake in rat neostriatal synaptosome preparation; assay type: biochemical
T1 construct: (synaptosome preparation) was obtained form fresh rat neostriatal brain tissue; from tissue; host or cells: rat neostriatum, synaptosome preparation
T1 sequence (P23977 whole entry): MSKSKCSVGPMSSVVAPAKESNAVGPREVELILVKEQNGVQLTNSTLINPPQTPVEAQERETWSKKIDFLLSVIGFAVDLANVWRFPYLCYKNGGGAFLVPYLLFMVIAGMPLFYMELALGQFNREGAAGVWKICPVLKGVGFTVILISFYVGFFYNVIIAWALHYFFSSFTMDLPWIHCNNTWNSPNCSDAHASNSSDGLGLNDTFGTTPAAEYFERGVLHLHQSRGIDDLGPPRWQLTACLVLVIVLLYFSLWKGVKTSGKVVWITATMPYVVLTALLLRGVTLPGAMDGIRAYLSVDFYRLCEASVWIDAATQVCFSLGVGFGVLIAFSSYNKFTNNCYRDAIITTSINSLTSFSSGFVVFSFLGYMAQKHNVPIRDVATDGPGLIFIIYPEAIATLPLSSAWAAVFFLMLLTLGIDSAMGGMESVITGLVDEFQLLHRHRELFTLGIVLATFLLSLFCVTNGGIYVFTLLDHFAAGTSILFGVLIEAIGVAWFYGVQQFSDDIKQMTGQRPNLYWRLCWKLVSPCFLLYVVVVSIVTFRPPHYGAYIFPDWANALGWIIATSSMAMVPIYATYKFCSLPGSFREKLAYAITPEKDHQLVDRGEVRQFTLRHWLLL
Procedure: An in vitro nerve terminal preparation (synaptosome preparation) was prepared using fresh rat neostriatal tissue.
FIG. 19: Determination of IC50 Values for Inhibition of Dopamine Re-Uptake.
An in vitro nerve-terminal preparation (synaptosome preparation) was obtained form fresh rat neostriatal brain tissue. Transport by dopamine nerve-terminals was estimated by measuring the uptake of tritiated dopamine.

[2] = tested on: cultured rat mesencephalic cells; assay: Medium change (glutamate receptor dependent) model of cell death: [3H]-dopamine uptake; conditions: for more axonal growth and terminal axonal survival compared to untreated control cells / 3H-Dopamine uptake as a percentage + SEM: 10 μM; for more axonal growth and terminal axonal survival compared to untreated control cells / 3H-Dopamine uptake as a percentage + SEM / Dopamine uptake, % control, Mean / Dopamine uptake, % control, individual cultures / Dopamine uptake, counts/min, Mean / Dopamine uptake, counts/min, individual cultures: medium change model; for 3H-Dopamine uptake as a percentage + SEM: control = 100; for neuron protection by measurement of dopamine uptake (FIG. 15): glutamate receptor dependent model
Procedure: Preparations are then added to 10 ml Ecoscint (National Diagnostics) and counted in a scintillation spectrometer.
In these experiments, cells were plated and allowed to stabilize for several days.

[3] = tested on: cultured rat mesencephalic cells exposed to NMDA; assay: NMDA model of cell death: [3H]-dopamine uptake; conditions: 100 μM NMDA exposure
MAO-A = target: T2, MAO-A (Cavia porcellus, UniProt H0UVA2); assay: MAO-A inhibition in guinea pig hippocampal homogenates in vitro; assay type: biochemical; parameters: by human platelets and/or guinea pig hippocampal homogenates; from tissue; host or cells: guinea pig hippocampus homogenate; conditions: for reduction in potency compared to selegiline (value in parentheses): MAO-A IC50, guinea pig hippocampal cortex
T2 sequence (H0UVA2 1-461): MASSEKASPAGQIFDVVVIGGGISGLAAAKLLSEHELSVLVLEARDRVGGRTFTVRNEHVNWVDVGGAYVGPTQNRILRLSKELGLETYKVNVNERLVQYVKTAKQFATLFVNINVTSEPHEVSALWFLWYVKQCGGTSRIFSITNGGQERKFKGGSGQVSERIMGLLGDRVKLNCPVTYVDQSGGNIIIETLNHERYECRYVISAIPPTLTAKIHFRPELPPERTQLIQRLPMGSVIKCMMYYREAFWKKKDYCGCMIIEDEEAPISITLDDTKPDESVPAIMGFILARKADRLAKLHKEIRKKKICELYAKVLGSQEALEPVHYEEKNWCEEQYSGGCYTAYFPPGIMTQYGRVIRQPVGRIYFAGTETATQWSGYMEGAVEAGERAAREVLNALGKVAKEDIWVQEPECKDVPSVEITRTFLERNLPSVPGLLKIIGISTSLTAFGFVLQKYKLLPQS
Description: Human platelet MAO is comprised exclusively of the type-B isoform of the enzyme. […] The present study also examined the two enantiomers of DMS for inhibitory activity with respect to the MAO-A and MAO-B in guinea pig hippocampal tissue. Guinea pig brain tissue is an excellent animal model for studying brain dopamine metabolism, the enzyme kinetics of the multiple forms of MAO and the inhibitory properties of novel agents that interact with these enzymes. The multiple forms of MAO in this animal species show similar kinetic properties to those found in human brain tissue. Finally, the test agents were administered to guinea pigs and the extent to which they might act as inhibitors of brain MAO in vivo was assessed.
In vitro: The test system utilized the in vitro conversion of specific substrates of MAO-A (^14C-serotonin) and MAO-B (^14C-phenylethylamine) by human platelets and/or guinea pig hippocampal homogenates. […] A percent inhibition was calculated from these values.

rat spleens = assay: Histological immunofluorescence of spleen innervation in old rats; assay type: in vivo; conditions: ip daily 60 days
Procedure: (§1) Rats were administered saline or test agent ip, daily for 60 days. They were then maintained for an additional “wash out” period of 10 days during which time no treatment was given. At the end of this time, animals were sacrificed and their spleens were removed. The spleen cells were then assayed for a variety of factors which are indicative of immune system function. Specifically, standard tests were employed to determine the following:
Histological immunofluorescence studies show a dramatic loss of innervation in rat spleens with age.

γ-interferon production = γ-interferon production by concanavalin A-stimulated spleen cells of treated old rats; assay type: in vivo, rat; conditions: for IFN-γ % control / IFN-γ U/ml mean: old rats, ip daily 60 days, 1.0 mg/kg (for DMS enantiomers)
Procedure: Rats were divided into the following experimental groups:
as §1
1) in vitro production of γ-interferon by concanavalin A-stimulated spleen cells;

C#CCN[C@@H](C)Cc1ccccc1 (single isomer, unassigned) [S(+)DMS, ent-desmethylselegiline]
Mean Grip Strength (gm) (wobbler mouse): 14 (7-20) gm
times more potent than either selegiline or R(−)DMS at inhibiting dopamine re-uptake [1]: 4-5 times
3H-Dopamine uptake, % Reduction x ± SEM ([1]; 1 μM): 24.1 ± 11.7%
3H-Dopamine uptake, % Reduction x ± SEM ([1]; 10 μM): 47.0 ± 3.1%
3H-Dopamine uptake, % Reduction x ± SEM ([1]; 100 μM): 15.3 ± 7.7%
more axonal growth and terminal axonal survival compared to untreated control cells [2]: 134%
3H-Dopamine uptake as a percentage + SEM [2]: 234 ± 38.36%
Dopamine uptake, % control, Mean ([3]; 0.5 μM): 187.4%
Dopamine uptake, % control, individual cultures ([3]; 0.5 μM): 164.2% and 179.0% and 181.6% and 242.7% and 169.2%
Dopamine uptake, counts/min, Mean ([3]; 0.5 μM): 12658.2 counts/min
Dopamine uptake, counts/min, individual cultures ([3]; 0.5 μM): 11096 counts/min and 12092 counts/min and 12269 counts/min and 16399 counts/min and 11435 counts/min
Dopamine uptake, % control, Mean ([3]; 5.0 μM): 246.9%
Dopamine uptake, % control, individual cultures ([3]; 5.0 μM): 229.9% and 300.6% and 245.4% and 235.8% and 222.8%
Dopamine uptake, counts/min, Mean ([3]; 5.0 μM): 16681.6 counts/min
Dopamine uptake, counts/min, individual cultures ([3]; 5.0 μM): 15535 counts/min and 20313 counts/min and 16579 counts/min and 15929 counts/min and 15052 counts/min
Dopamine uptake, % control, Mean ([3]; 50 μM): 448.9%
Dopamine uptake, % control, individual cultures ([3]; 50 μM): 371.5% and 384.0% and 422.5% and 577.9% and 488.8%
Dopamine uptake, counts/min, Mean ([3]; 50 μM): 30331.2 counts/min
Dopamine uptake, counts/min, individual cultures ([3]; 50 μM): 25101 counts/min and 25944 counts/min and 28545 counts/min and 39042 counts/min and 33024 counts/min
IC50 (MAO-A): 100 µM
inhibition at 1 µM (MAO-A; 1 μM, guinea pig hippocampus, read-out: MAO-A % Inhibition x = SEM): 3.3 ± 1.5%
inhibition at 3 µM (MAO-A; 3 μM, guinea pig hippocampus, read-out: MAO-A % Inhibition x = SEM): 4.3 ± 1%
inhibition at 10 µM (MAO-A; 10 μM, guinea pig hippocampus, read-out: MAO-A % Inhibition x = SEM): 10.5 ± 1.47%
inhibition at 100 µM (MAO-A; 100 μM, guinea pig hippocampus, read-out: MAO-A % Inhibition x = SEM): 48.4 ± 1.8%
inhibition at 1000 µM (MAO-A; 1 mM, guinea pig hippocampus, read-out: MAO-A % Inhibition x = SEM): 92.7 ± 2.5%
inhibition at 10000 µM (MAO-A; 10 mM, guinea pig hippocampus, read-out: MAO-A % Inhibition x = SEM): 99.6 ± 0.35%
reduction in potency compared to selegiline (value in parentheses) (MAO-A): 40
innervation in the spleens, histological examination (rat spleens): did not show any effect
γ-interferon levels in old rats after administration (γ-interferon production; most dramatic increases at 1.0 mg/kg body weight): restoration of γ-interferon levels
IFN-γ % control (γ-interferon production): 261%
IFN-γ U/ml mean (γ-interferon production): 918 U/ml

desmethylselegiline [R(−)DMS]
Mean Grip Strength (gm) (wobbler mouse): 20 (0-63) gm
3H-Dopamine uptake, % Reduction x ± SEM ([1]; 1 μM): 10.7 ± 2.8%
3H-Dopamine uptake, % Reduction x ± SEM ([1]; 10 μM): 20.1 ± 3.1%
3H-Dopamine uptake, % Reduction x ± SEM ([1]; 100 μM): 11.5 ± 1.0%
3H-Dopamine uptake, % Reduction x ± SEM ([1]; 100 μM (last row of each agent)): 51.3 ± 2.6%
Dopamine uptake, % control, Mean ([2]; 0.5 μM): 141.9%
Dopamine uptake, % control, individual cultures ([2]; 0.5 μM): 142.3% and 152.4% and 142.6% and 130.4%
Dopamine uptake, counts/min, Mean ([2]; 0.5 μM): 29800.75 counts/min
Dopamine uptake, counts/min, individual cultures ([2]; 0.5 μM): 29885 counts/min and 32002 counts/min and 29934 counts/min and 27382 counts/min
neuron protection by measurement of dopamine uptake (FIG. 15) ([2]; 5 μM): neuron protection
Dopamine uptake, % control, Mean ([2]; 5.0 μM): 153.7%
Dopamine uptake, % control, individual cultures ([2]; 5.0 μM): 155.2% and 142.1% and 173.2% and 144.5%
Dopamine uptake, counts/min, Mean ([2]; 5.0 μM): 32280 counts/min
Dopamine uptake, counts/min, individual cultures ([2]; 5.0 μM): 32577 counts/min and 29831 counts/min and 36370 counts/min and 30342 counts/min
more axonal growth and terminal axonal survival compared to untreated control cells [2]: 40%
3H-Dopamine uptake as a percentage + SEM [2]: 140.82 ± 26.20%
neuron protection by measurement of dopamine uptake (FIG. 15) ([2]; 50 μM): neuron protection
Dopamine uptake, % control, Mean ([2]; 50 μM): 185.5%
Dopamine uptake, % control, individual cultures ([2]; 50 μM): 178.3% and 186.7% and 186.3% and 190.6%
Dopamine uptake, counts/min, Mean ([2]; 50 μM): 38944.75 counts/min
Dopamine uptake, counts/min, individual cultures ([2]; 50 μM): 37440 counts/min and 39200 counts/min and 39126 counts/min and 40013 counts/min
Dopamine uptake, % control, Mean ([3]; 0.5 μM): 138.6%
Dopamine uptake, % control, individual cultures ([3]; 0.5 μM): 167.3% and 138.9% and 132.9% and 133.6% and 120.4%
Dopamine uptake, counts/min, Mean ([3]; 0.5 μM): 9365.2 counts/min
Dopamine uptake, counts/min, individual cultures ([3]; 0.5 μM): 11304 counts/min and 9385 counts/min and 8976 counts/min and 9028 counts/min and 8133 counts/min
Dopamine uptake, % control, Mean ([3]; 5.0 μM): 177.6%
Dopamine uptake, % control, individual cultures ([3]; 5.0 μM): 163.0% and 199.9% and 169.8% and 204.0% and 151.4%
Dopamine uptake, counts/min, Mean ([3]; 5.0 μM): 12001.8 counts/min
Dopamine uptake, counts/min, individual cultures ([3]; 5.0 μM): 11014 counts/min and 13509 counts/min and 11471 counts/min and 13786 counts/min and 10229 counts/min
Dopamine uptake, % control, Mean ([3]; 50 μM): 304.3%
Dopamine uptake, % control, individual cultures ([3]; 50 μM): 262.1% and 341.8% and 318.7% and 259.3% and 339.9%
Dopamine uptake, counts/min, Mean ([3]; 50 μM): 20562.2 counts/min
Dopamine uptake, counts/min, individual cultures ([3]; 50 μM): 17708 counts/min and 23090 counts/min and 21530 counts/min and 17520 counts/min and 22963 counts/min
MAO-A % Inhibition x = SEM (MAO-A; 300 nM, guinea pig hippocampus): 4.8 ± 2.1%
MAO-A % Inhibition x = SEM (MAO-A; 1 μM, guinea pig hippocampus): 4.2 ± 1.5%
MAO-A % Inhibition x = SEM (MAO-A; 3 μM, guinea pig hippocampus): 10.5 ± 2.0%
MAO-A % Inhibition x = SEM (MAO-A; 10 μM, guinea pig hippocampus): 19.0 ± 1.3%
MAO-A % Inhibition x = SEM (MAO-A; 100 μM, guinea pig hippocampus): 64.2 ± 1.5%
MAO-A % Inhibition x = SEM (MAO-A; 1 mM, guinea pig hippocampus): 96.5 ± 1.2%
reduction in potency compared to selegiline (value in parentheses) (MAO-A): 20
IC50 (MAO-A; read-out: IC50 for MAO-A in Guinea Pig Hippocampal Cortex): 50 µM
innervation in the spleens, histological examination (rat spleens): significant increase in innervation
IFN-γ % control (γ-interferon production): 777%
IFN-γ U/ml mean (γ-interferon production): 2728 U/ml
